Reference: patent US6869923B1, “Perfume compositions” (Procter & Gamble Company, priority 1998, dated 2005)

System: panelist
Experiment: Odor detection threshold (ODT) by gas chromatograph with sniff port
Set-up: species or system human
Conditions: GC sniff port, average across panelists
Description: Odor detection thresholds are determined using a gas chromatograph. The gas chromatograph is calibrated to determine the exact volume of material injected by the syringe, the precise split ratio, and the hydrocarbon response using a hydrocarbon standard of known concentration and chain-length distribution. The air flow rate is accurately measured and, assuming the duration of a human inhalation to last […], the sampled volume is calculated. […] A panelist sniffs the GC effluent and identifies the retention time when odor is noticed. The average across all panelists determines the threshold of noticeability. […] Typical gas chromatograph parameters for determining odor detection thresholds are listed below. • GC: 5890 Series II with FID detector • 7673 Autosampler • Column: J&W Scientific DB-1 • Length 30 meters ID 0.25 mm film thickness 1 micron • Method: • Split Injection: 17/1 split ratio • Autosampler: 1.13 microliters per injection • Column Flow: 1.10 mL/minute • Air Flow: 345 mL/minute • Inlet Temp. 245° C. • Detector Temp. 285° C. • Temperature Information • Initial Temperature: 50° C. • Rate: 5 C/minute • Final Temperature: 280° C. • Final Time: 6 minutes • Leading assumptions: • (i) 12 seconds per sniff • (ii) GC air adds to sample dilution A-High Impact Accord (“HIA”) Perfume Ingredients of Class 1

Which ODT does the source give for `C=CC(C)(O)CCC=C(C)C` (stereo not shown) [Linalool] here?
The ODT was <50 PPB.

Which ODT does the source give for `CCCCCCC#CC(=O)OC` [Methyl Octine Carbonate] here?
Its ODT is <50 PPB.

Which ODT does the source give for `CC(C)=CC1CC(C)CCO1` (stereo not shown) [Rose Oxide] here?
The ODT was <50 PPB.

How did the ODT turn out when `CC(CO)C1CCCCCCCCCCC1` (stereo not shown) [2-(Cyclododecyl)-propan-1-ol] was run?
The ODT was <50 PPB.

`CCCC(O)CCC1C(C)CCCC1(C)C` (stereo not drawn) [Cyclohexane Propanol 2,2,6 Trimethyl-Alpha-Propyl.] was tested. Which ODT did it give?
Its ODT is <50 PPB.

Which ODT does the source give for `COc1ccc(C=O)cc1` [Anisic Aldehyde] here?
The ODT was <50 PPB.

With `CC1=CCC(C=CC(C)C(C)O)C1(C)C` (stereo not shown) [3-Methyl-5-(2,2,3,trimethyl-3-cyclopenten-1-yl)-4-penten-2-ol] as the compound, how does the ODT read?
Its ODT is <50 PPB.

For `CC1=CCC(C(C)CC2CCCC2=O)CC1` (stereo not shown) [2-(2-(4 methyl-3-Cyclohexen-1-yl)propyl)-cyctopentanone.], which ODT is on record?
The ODT was <50 PPB.

For `O=C1CCCC=CCCCCCCCCCC1` [5-Cyclohexadecenone-1], which ODT is on record?
Its ODT is <50 PPB.

Which ODT does the source give for `CC(=O)/C=C/C1=C(C)CCCC1(C)C` [Ionone Beta] here?
Its ODT is <50 PPB.

How did the ODT turn out when `CC1COC(C)(c2ccc3c(c2)C(C)(C)CCC3(C)C)O1` (stereo not shown) [2,4,Dimethyl-2-(1,1,4,4 tetramethyl) tetralin-6-yl)-13-dioxolane] was run?
Its ODT is <50 PPB.

For `CC(=O)OC1CC2CC1C1CC=CC21` (stereo not shown) [Flor Acetate], which ODT is on record?
Its ODT is <50 PPB.

With `CCCCCCCCCCC=CC#N` [Tridecene-2-nitrile] as the compound, how does the ODT read?
The ODT was <50 PPB.

For `CCOC(=O)C(C)CC` (stereo not shown) [Ethyl-2-methyl Butyrate], which ODT is on record?
Its ODT is <50 PPB.

For `CC1=CC(C)C(C=O)CC1` (stereo not shown) [Cyclal C], which ODT is on record?
The ODT was <50 PPB.

How did the ODT turn out when `CCC12CCC3C(C)(C)CCCC3(C)C1CCO2` (stereo not shown) [Naphtho(2.1-B)-furan,3A-Ethyl Dodecahydro-6,6,9A-Trimethyl] was run?
The ODT was <50 PPB.

Which ODT does the source give for `CC1C(C)(C)C2=C(C(=O)CCC2)C1(C)C` (stereo not shown) [6,7Dihydro-1,1,2,3,3-Penta-Methyl-4(5H)-Indanone] here?
The ODT was <50 PPB.

Oxacyclohexadecen-2-one was tested. Which ODT did it give?
The ODT was <50 PPB.

For `CCC(=O)OC1CC2CC1C1CC=CC21` (stereo not shown) [Frutene], which ODT is on record?
Its ODT is <50 PPB.

Which ODT does the source give for `CC/C=C\CCOC(=O)c1ccccc1O` [Cis-3-Hexenyl Salicylate] here?
The ODT was <50 PPB.

For 3-Methyl-4(5)-Cyclopentadecenone, which ODT is on record?
Its ODT is <50 PPB.

How did the ODT turn out when `CC(=O)C1(C)CC2=C(CCCC2(C)C)CC1C` (stereo not shown) [7,Acetyl,1,2,3,4,5,6,7,8-Octahydro-1,1,6,7-Tetra Methyl Naphthalene] was run?
The ODT was <50 PPB.
